Laboratory results reported in publication PMC11678245, “The Molecular Basis of the Intrinsic and Acquired Resistance to Azole Antifungals in Aspergillus fumigatus” (Journal of Fungi, 2024).
Several values for one entry are separate records, joined by “and”; a condition that tells them apart may be missing. Equal values may be shown once. Read-outs that look alike come from different tables or passages of the source.

Tests used:
[1] = tested on: S. cerevisiae strain A (AfCyp51A-6×His, native ScCyp51 retained); test: MIC80 susceptibility, strain A; type: cell-based; settings: Saccharomyces cerevisiae, Table 2, SD pH 6.8, 48 h, 30 °C
Experimental: (§1) The susceptibilities of S. cerevisiae strains to antifungal drugs were determined as minimum growth inhibitory concentration (MIC) values in 200 μL SD pH 6.8 [24]. Serial 2-fold dilutions of 100 μL of azole or control drugs in SD pH 6.8 were prepared in a 96-well microtiter plate. A portion of a 2 mL SD pH 6.8 overnight culture of the test strain was inoculated into 3 mL fresh SD pH 6.8 and incubated for 4 to 6 h at 30 °C to generate logarithmic-phase cells. These cells were then diluted with fresh SD pH 6.8 to OD600nm = 0.01 (3 × 10^4 CFU), and 100 μL of this cell suspension was added to microtiter plate wells. Cell growth after 48 h incubation at 30 °C with shaking at 200 rpm was determined at 600 nm using a BioTek™ Synergy™ 2 multi-Mode microplate reader controlled using Gen5™ Data Analysis Software version 3.16.10 (BioTek Instruments, Winooski, VT, USA). MIC80 values (80% growth inhibition in the presence of the test drug compared with the untreated control) for each yeast construct were determined as technical triplicates repeated three times for three separate clones.

[2] = tested on: S. cerevisiae strain ARE (Y2746); test: Sterol analysis of recombinant yeast strain (GC-MS); type: cell-based, Saccharomyces cerevisiae; settings: VCZ at concentration slowing growth rate by ~50%, 20% without VCZ
Experimental: (§2) Yeast strains grown overnight in SD medium pH 6.8 were inoculated in 20 mL fresh medium and grown to OD600nm = 0.5. The cultures were then treated with VCZ at a concentration that reduced the rate of cell growth by ~50%. Untreated control cultures were harvested by centrifugation after 8 h at a cell density of ~2.5, and VCZ-treated cultures were harvested after ~16 h at a similar cell density. The harvested cells were prepared for sterol extraction and analysis using the method described by Müller et al..

[3] = tested on: S. cerevisiae strain BRE (Y2747); test: as above; type: cell-based, Saccharomyces cerevisiae; settings: VCZ at concentration slowing growth rate by ~50%, ~1% without VCZ
Experimental: as §2

[4] = tested on: S. cerevisiae Y2305 ADΔΔ CYP51 T322I (ScCYP51 T322I); test: MIC80 susceptibility, strain Y2305 (Table S1); type: cell-based, Saccharomyces cerevisiae; settings: Saccharomyces cerevisiae, read-out: MIC80
Experimental: as §1, with “clones. […]” for “clones.”
(§3) Table S1. Azole susceptibilities of ScCYP51 and ScCYP51 T322I expressed
(§4) Data for each strain was obtained for […] in three biological replicates.

[5] = tested on: S. cerevisiae strain ARE Y121F T289A (AfCyp51A-6×His Y121F T289A, AfCprA2, AfErg6-FLAG); test: MIC80 susceptibility, strain Y121F T289A; type: cell-based, Saccharomyces cerevisiae; settings: for MIC80: Saccharomyces cerevisiae, ± SD, read-out: MIC80
Experimental: as §1

[6] = tested on: S. cerevisiae strain ADLS overexpressing ScCYP51-6×His; test: MIC80 susceptibility, strain ADLS; type: cell-based, Saccharomyces cerevisiae; settings: for MIC80: Saccharomyces cerevisiae, Table 2, strain ADLS, SD pH 6.8, 48 h, 30 °C, ± SD, read-out: MIC80
Experimental: as §1

[7] = tested on: S. cerevisiae Y2300 ADΔΔ CYP51 (ScCYP51); test: MIC80 susceptibility, strain Y2300 (Table S1); type: cell-based, Saccharomyces cerevisiae; settings: Saccharomyces cerevisiae
Experimental: as §1, with “clones. […]” for “clones.”
as §3, §4

[8] = tested on: S. cerevisiae strain ARE Y121F (AfCyp51A-6×His Y121F, AfCprA2, AfErg6-FLAG); test: MIC80 susceptibility, strain Y121F; type: cell-based, Saccharomyces cerevisiae; settings: for MIC80: Saccharomyces cerevisiae, ± SD, read-out: MIC80
Experimental: as §1

[9] = tested on: S. cerevisiae strain BRE (AfCyp51B-6×His, AfCprA2, AfErg6-FLAG); test: MIC80 susceptibility, strain BRE; type: cell-based, Saccharomyces cerevisiae; settings: for MIC80: strain BRE, ± SD
Experimental: as §1

[10] = Table 2, strain Y121F T289A, SD pH 6.8, 48 h, 30 °C
[11] = Table 2, strain Y121F, SD pH 6.8, 48 h, 30 °C
[12] = Saccharomyces cerevisiae, Table 2, SD pH 6.8, 48 h, 30 °C, read-out: MIC80

Row | SMILES | MIC80 [1] [µM] | eburicol content in the presence of VCZ [2] | eburicol content in the presence of VCZ [3] | MIC80 [4] [µM] | increase in resistance (MIC80) of strain Y121F T289A compared with strain BRE [5] [fold] | increase in resistance (MIC80) of strain Y121F T289A compared with strain T289A [5] [fold] | MIC80 [5, 10] [µM] | MIC80 [6] [µM] | MIC80 [7] [µM] | increase in resistance (MIC80) of strain Y121F compared with strain ARE [8] | MIC80 [8, 11] [µM] | MIC80 [9, 12] [µM] | MIC80 of strain BRE relative to strain ADΔΔ ([9]; higher) | increase in resistance (MIC80) of strain Y121F T289A compared with strain ARE [5] [fold] | increase in resistance (MIC80) of strain Y121F T289A compared with strain Y121F [5] [fold] | MIC80 ([5]; Table 3, strain ARE Y121F T289A) [µM] | MIC80 of strain ADLS relative to strain ADΔΔ ([6]; higher) [fold] | MIC80 ([8]; Table 3, strain ARE Y121F) [µM] | MIC80 ([9]; Saccharomyces cerevisiae, Table 3, read-out: MIC80) [µM] | MIC80 ([9]; Table 2, SD pH 6.8, 48 h, 30 °C) [µM]
1 | C[C@@H](c1ncncc1F)[C@](O)(Cn1cncn1)c1ccc(F)cc1F [VCZ, voriconazole] | 0.08 ± 0.01 | 25 % of total sterol | ~ 20 % of total sterol | 0.8 ± 0.03 | 4 | 4 | 2.86 ± 0.22 | 0.17 ± 0.03 | 0.71 ± 0.03 | > 8 fold and 8 fold | 2.07 ± 0.21 | 0.21 ± 0.02 | 4- to 5 fold |  |  |  |  |  |  | 
2 | OC(Cn1cncn1)(Cn1cncn1)c1ccc(F)cc1F [FLC, fluconazole] | 3.8 ± 0.2 |  |  | 6.6 ± 0.2 | 106 | 53 | 1060 ± 60 | 8 ± 0.2 | 6.2 ± 0.3 |  | 263 ± 31.6 | 10 ± 1.4 |  | 5 | 4 | 725 ± 65 | 3 | 157 ± 33 | 3.8 ± 0.9 | 10.0 ± 1.4
